Experiments:
[1] = target: Nuclear factor NF-kappa-B complex (Homo sapiens) (UniProt Q00653+P19838+Q04206); test: Activation of NF-KappaB (unknown origin) expressed in HEK293T cells assessed as fold change at 20 uM; format: cell-based; conditions: filed as activator
[2] = target: Nucleotide-binding oligomerization domain-containing protein 2 (Homo sapiens, UniProt Q9HC29); test: Activation of NOD2 in HEK293T cells; format: cell-based; conditions: filed as activator
Cavia porcellus [3] = species on record: Cavia porcellus; test: Induction of delayed type hypersensitivity in ABA-BSA immunized Hartley Guinea pigs assessed as reduction in skin lesions at 100 ug measured for 48 hrs; format: functional; conditions: dose 100 µg
Cavia porcellus [4] = species on record: Cavia porcellus; test: Induction of delayed type hypersensitivity in ABA-BSA immunized Hartley Guinea pigs assessed as reduction in skin lesions at 100 ug measured for 24 hrs; format: functional; conditions: dose 100 µg

Sequence of Nucleotide-binding oligomerization domain-containing protein 2 (Q9HC29 whole entry, the tested form may be a part): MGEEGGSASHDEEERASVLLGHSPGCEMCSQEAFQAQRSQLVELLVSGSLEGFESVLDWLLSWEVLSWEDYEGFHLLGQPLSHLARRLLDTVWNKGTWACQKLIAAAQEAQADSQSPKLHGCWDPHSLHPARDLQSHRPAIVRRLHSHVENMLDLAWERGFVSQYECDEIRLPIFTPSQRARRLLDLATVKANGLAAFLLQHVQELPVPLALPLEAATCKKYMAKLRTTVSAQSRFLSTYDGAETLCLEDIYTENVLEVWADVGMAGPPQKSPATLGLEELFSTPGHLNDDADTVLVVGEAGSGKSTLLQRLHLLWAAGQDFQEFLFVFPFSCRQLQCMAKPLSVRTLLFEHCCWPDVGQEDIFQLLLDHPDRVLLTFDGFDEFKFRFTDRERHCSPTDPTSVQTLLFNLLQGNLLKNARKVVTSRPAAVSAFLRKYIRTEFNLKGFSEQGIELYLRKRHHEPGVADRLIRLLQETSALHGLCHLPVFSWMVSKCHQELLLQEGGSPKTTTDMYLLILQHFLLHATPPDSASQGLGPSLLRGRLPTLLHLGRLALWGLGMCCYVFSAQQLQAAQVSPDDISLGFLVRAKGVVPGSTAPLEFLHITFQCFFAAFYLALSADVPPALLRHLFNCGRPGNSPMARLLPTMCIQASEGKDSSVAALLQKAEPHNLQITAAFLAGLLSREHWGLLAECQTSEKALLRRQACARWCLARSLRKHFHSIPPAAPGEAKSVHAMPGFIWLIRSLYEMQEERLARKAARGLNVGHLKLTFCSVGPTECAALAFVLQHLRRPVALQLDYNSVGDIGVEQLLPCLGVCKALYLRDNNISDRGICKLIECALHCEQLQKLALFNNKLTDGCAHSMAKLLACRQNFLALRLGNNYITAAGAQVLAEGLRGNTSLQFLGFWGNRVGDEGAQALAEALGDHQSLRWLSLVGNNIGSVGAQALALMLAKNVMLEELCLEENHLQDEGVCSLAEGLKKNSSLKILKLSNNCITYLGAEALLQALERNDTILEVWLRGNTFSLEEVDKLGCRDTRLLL
Sequence of Nuclear factor NF-kappa-B complex (Homo sapiens) (P19838 whole entry, looked up, the tested form may be a part): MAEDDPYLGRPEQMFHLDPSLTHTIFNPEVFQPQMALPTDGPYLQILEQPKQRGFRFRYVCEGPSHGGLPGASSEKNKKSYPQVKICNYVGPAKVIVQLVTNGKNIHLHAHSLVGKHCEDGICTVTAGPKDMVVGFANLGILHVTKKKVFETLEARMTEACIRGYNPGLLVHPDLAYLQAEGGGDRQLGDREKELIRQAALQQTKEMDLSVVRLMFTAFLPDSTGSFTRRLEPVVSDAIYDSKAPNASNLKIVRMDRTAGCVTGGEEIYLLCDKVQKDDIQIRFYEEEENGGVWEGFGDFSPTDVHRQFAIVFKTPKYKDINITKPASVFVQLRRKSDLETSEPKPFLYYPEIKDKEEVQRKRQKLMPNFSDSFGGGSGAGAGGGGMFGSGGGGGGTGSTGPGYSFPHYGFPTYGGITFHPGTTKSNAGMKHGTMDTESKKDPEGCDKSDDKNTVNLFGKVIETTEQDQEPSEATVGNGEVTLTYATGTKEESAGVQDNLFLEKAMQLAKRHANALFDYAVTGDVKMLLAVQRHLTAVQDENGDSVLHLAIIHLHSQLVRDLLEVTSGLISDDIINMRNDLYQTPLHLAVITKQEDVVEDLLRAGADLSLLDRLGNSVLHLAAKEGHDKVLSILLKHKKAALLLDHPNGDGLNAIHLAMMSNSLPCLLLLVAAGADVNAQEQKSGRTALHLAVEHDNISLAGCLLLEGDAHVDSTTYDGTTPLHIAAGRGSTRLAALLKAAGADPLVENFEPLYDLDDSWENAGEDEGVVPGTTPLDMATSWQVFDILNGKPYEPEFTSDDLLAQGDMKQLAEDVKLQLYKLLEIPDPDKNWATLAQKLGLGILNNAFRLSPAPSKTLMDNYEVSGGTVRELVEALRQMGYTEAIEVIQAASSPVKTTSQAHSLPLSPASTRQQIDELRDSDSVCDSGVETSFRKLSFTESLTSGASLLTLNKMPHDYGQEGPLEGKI
Sequence of Nuclear factor NF-kappa-B complex (Homo sapiens) (Q00653 whole entry, looked up, the tested form may be a part): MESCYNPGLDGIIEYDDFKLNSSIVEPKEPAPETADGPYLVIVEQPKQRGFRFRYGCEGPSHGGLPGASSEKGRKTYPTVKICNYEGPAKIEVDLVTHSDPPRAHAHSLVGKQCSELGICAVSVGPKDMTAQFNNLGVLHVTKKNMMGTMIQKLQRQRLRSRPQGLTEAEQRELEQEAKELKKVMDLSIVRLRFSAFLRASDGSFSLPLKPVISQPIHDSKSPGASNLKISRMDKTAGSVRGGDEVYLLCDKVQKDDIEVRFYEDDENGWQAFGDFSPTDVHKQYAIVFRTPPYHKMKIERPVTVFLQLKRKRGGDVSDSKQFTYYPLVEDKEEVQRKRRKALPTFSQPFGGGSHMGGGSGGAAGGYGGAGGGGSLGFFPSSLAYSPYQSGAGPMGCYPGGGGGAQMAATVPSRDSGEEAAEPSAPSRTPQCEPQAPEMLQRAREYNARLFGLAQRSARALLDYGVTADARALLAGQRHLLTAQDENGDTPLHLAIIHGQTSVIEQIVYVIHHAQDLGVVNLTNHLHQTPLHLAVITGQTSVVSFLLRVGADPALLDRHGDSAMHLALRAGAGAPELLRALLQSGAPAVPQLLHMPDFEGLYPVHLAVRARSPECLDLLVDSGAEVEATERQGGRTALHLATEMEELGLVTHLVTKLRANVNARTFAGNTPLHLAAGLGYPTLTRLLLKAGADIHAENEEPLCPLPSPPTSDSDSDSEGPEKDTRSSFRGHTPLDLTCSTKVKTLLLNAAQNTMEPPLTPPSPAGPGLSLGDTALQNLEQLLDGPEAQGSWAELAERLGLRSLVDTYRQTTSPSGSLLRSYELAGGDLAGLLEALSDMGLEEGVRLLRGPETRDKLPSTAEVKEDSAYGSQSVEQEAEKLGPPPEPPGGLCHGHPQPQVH
Sequence of Nuclear factor NF-kappa-B complex (Homo sapiens) (Q04206 whole entry, looked up, the tested form may be a part): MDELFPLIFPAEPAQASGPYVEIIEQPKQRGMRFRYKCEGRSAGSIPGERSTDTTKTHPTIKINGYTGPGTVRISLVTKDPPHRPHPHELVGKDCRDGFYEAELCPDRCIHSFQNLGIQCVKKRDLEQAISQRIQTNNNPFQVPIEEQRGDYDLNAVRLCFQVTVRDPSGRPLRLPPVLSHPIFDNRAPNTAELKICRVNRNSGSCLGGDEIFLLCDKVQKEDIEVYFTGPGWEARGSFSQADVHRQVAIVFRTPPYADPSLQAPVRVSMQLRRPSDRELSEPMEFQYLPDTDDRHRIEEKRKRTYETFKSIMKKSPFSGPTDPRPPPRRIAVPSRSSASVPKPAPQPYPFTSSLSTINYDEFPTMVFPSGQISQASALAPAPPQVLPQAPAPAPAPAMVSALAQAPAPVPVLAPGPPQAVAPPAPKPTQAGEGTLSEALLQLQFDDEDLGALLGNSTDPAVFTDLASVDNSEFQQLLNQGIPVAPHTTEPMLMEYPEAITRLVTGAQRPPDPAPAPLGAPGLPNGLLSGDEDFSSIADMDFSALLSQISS

Structure (SMILES)	fold change (FC) [1]	Activity (Cavia porcellus [3])	Activity (Cavia porcellus [4])	also measured
C[C@H](NC(=O)[C@@H](C)O[C@H]1[C@H](O)[C@@H](CO)O[C@@H](OCc2ccccc2)[C@@H]1N=[N+]=[N-])C(=O)N[C@H](CCC(=O)OCc1ccccc1)C(N)=O	0.11			
CCO[C@@H]1O[C@H](CO)[C@@H](O[C@@H]2O[C@H](CO)[C@@H](O[C@@H]3O[C@H](CO)[C@@H](O[C@@H]4O[C@H](CO)[C@@H](O)[C@H](O[C@H](C)C(=O)N[C@@H](C)C(=O)N[C@H](CCC(=O)N[C@@H](CCCCN)C(=O)O)C(N)=O)[C@H]4NC(C)=O)[C@H](O)[C@H]3NC(C)=O)[C@H](O[C@H](C)C(=O)N[C@@H](C)C(=O)N[C@H](CCC(=O)N[C@@H](CCCCN)C(=O)O)C(N)=O)[C@H]2NC(C)=O)[C@H](O)[C@H]1NC(C)=O				Activity [2]: 30 mU
CCCCCCCCOC(=O)CC[C@@H](NC(=O)[C@H](C)NC(=O)[C@@H](C)O[C@H]1[C@H](O)[C@@H](CO)O[C@@H](OCc2ccccc2)[C@@H]1N=[N+]=[N-])C(N)=O	0.04			
CC(=O)N[C@@H]1[C@@H](O[C@H](C)C(=O)N[C@@H](C)C(=O)N[C@H](CCC(=O)O)C(N)=O)[C@H](O[C@@H]2O[C@H](CO)[C@@H](O)[C@H](O)[C@H]2NC(C)=O)[C@@H](CO)O[C@H]1O				Activity [2]: 1000 mU
CCO[C@@H]1O[C@H](CO)[C@@H](O[C@@H]2O[C@H](CO)[C@@H](O[C@@H]3O[C@H](CO)[C@@H](O[C@@H]4O[C@H](CO)[C@@H](O)[C@H](O[C@H](C)C(=O)N[C@@H](C)C(=O)N[C@H](CCC(=O)N[C@@H](CCCCN)C(=O)N[C@H](C)C(=O)N[C@H](C)C(=O)O)C(N)=O)[C@H]4NC(C)=O)[C@H](O)[C@H]3NC(C)=O)[C@H](O[C@H](C)C(=O)N[C@@H](C)C(=O)N[C@H](CCC(=O)N[C@@H](CCCCN)C(=O)N[C@H](C)C(=O)N[C@H](C)C(=O)O)C(N)=O)[C@H]2NC(C)=O)[C@H](O)[C@H]1NC(C)=O				Activity [2]: 12.5 mU
C[C@H](NC(=O)[C@@H](C)O[C@H]1[C@H](O)[C@@H](CO)O[C@@H](O)[C@@H]1NOC(=O)CCCC[C@@H]1SC[C@@H]2NC(=O)N[C@@H]21)C(=O)N[C@H](CCC(=O)O)C(N)=O	2.5			
CCCCCCCCCCCCCCOC(=O)CC[C@@H](NC(=O)[C@H](C)NC(=O)[C@@H](C)O[C@H]1[C@H](O)[C@@H](CO)O[C@@H](OCc2ccccc2)[C@@H]1N=[N+]=[N-])C(N)=O	0.04			
COC(=O)CCC(=O)N[C@@H]1[C@@H](O[C@H](C)C(=O)N[C@@H](C)C(=O)N[C@H](CCC(=O)O)C(N)=O)[C@H](O)[C@@H](CO)O[C@H]1O	2.4			
C[C@H](NC(=O)[C@@H](C)O[C@H]1[C@H](O)[C@@H](CO)O[C@@H](OCc2ccccc2)[C@@H]1N=[N+]=[N-])C(=O)N[C@H](CCC(=O)O)C(N)=O	0.08			
CC(=O)OCC(=O)N[C@@H]1[C@@H](O[C@H](C)C(=O)N[C@@H](C)C(=O)N[C@H](CCC(=O)O)C(N)=O)[C@H](O)[C@@H](CO)O[C@H]1O	2.2			
CC(=O)NC[C@H]1O[C@@H](O)[C@H](NC(C)=O)[C@@H](O[C@H](C)C(=O)N[C@@H](C)C(=O)N[C@H](CCC(=O)O)C(N)=O)[C@@H]1O		16.7 mm	21.4 mm	
C[C@H](NC(=O)[C@@H](C)O[C@H]1[C@H](O)[C@@H](CO)O[C@@H](O)[C@@H]1NC(=O)CN=[N+]=[N-])C(=O)N[C@H](CCC(=O)O)C(N)=O	1.8			
CC(=O)N[C@@H]1[C@@H](O)[C@H](O[C@@H]2O[C@H](CO)[C@@H](O)[C@H](O[C@H](C)C(=O)N[C@@H](C)C(=O)N[C@H](CCC(=O)N[C@@H](CCCCN)C(=O)O)C(N)=O)[C@H]2NC(C)=O)[C@@H](CO)O[C@H]1O				Activity [2]: 100 mU
C[C@H](NC(=O)[C@@H](C)O[C@@H]1[C@@H](N)[C@H](O)O[C@H](CN)[C@H]1O)C(=O)N[C@H](CCC(=O)O)C(N)=O		9.3 mm	15.1 mm	
CCCCCCCC(=O)NC[C@H]1O[C@@H](O)[C@H](NC(C)=O)[C@@H](O[C@H](C)C(=O)N[C@@H](C)C(=O)N[C@H](CCC(=O)O)C(N)=O)[C@@H]1O		8.8 mm	16.7 mm	
CCO[C@@H]1O[C@H](CO)[C@@H](O[C@@H]2O[C@H](CO)[C@@H](O[C@@H]3O[C@H](CO)[C@@H](O[C@@H]4O[C@H](CO)[C@@H](O)[C@H](O[C@H](C)C(=O)N[C@@H](C)C(=O)N[C@H](CCC(=O)N[C@@H](CCCCN)C(=O)O)C(N)=O)[C@H]4NC(C)=O)[C@H](O)[C@H]3NC(C)=O)[C@H](O)[C@H]2NC(C)=O)[C@H](O[C@H](C)C(=O)N[C@@H](C)C(=O)N[C@H](CCC(=O)N[C@@H](CCCCN)C(=O)O)C(N)=O)[C@H]1NC(C)=O				Activity [2]: 0.5 mU
C[C@H](NC(=O)[C@@H](C)O[C@H]1[C@H](O)[C@@H](CO)O[C@@H](O)[C@@H]1NC(=O)CCC(=O)O)C(=O)N[C@H](CCC(=O)O)C(N)=O	2.3			
CCO[C@@H]1O[C@H](CO)[C@@H](O[C@@H]2O[C@H](CO)[C@@H](O[C@@H]3O[C@H](CO)[C@@H](O[C@@H]4O[C@H](CO)[C@@H](O)[C@H](O[C@H](C)C(=O)N[C@@H](C)C(=O)N[C@H](CCC(=O)O)C(N)=O)[C@H]4NC(C)=O)[C@H](O)[C@H]3NC(C)=O)[C@H](O[C@H](C)C(=O)N[C@@H](C)C(=O)N[C@H](CCC(=O)O)C(N)=O)[C@H]2NC(C)=O)[C@H](O)[C@H]1NC(C)=O				Activity [2]: 800 mU
CC(=O)N[C@@H]1[C@@H](O[C@H](C)C(=O)N[C@@H](CO)C(=O)N[C@H](CCC(=O)O)C(N)=O)[C@H](O)[C@@H](CN)O[C@H]1O		22.3 mm	21.6 mm	
CCO[C@@H]1O[C@H](CO)[C@@H](O[C@@H]2O[C@H](CO)[C@@H](O[C@@H]3O[C@H](CO)[C@@H](O[C@@H]4O[C@H](CO)[C@@H](O)[C@H](O)[C@H]4NC(C)=O)[C@H](O[C@H](C)C(=O)N[C@@H](C)C(=O)N[C@H](CCC(=O)O)C(N)=O)[C@H]3NC(C)=O)[C@H](O)[C@H]2NC(C)=O)[C@H](O[C@H](C)C(=O)N[C@@H](C)C(=O)N[C@H](CCC(=O)O)C(N)=O)[C@H]1NC(C)=O				Activity [2]: 80 mU
CC(=O)NC[C@H]1O[C@@H](O)[C@H](NC(C)=O)[C@@H](O[C@H](C)C(=O)N[C@@H](CO)C(=O)N[C@H](CCC(=O)O)C(N)=O)[C@@H]1O		19.6 mm	20.4 mm	
C[C@H](NC(=O)[C@@H](C)O[C@@H]1[C@@H](N)[C@H](O)O[C@H](CN)[C@H]1O)C(=O)N[C@H](CCC(=O)O)C(N)=O.Cl.Cl		5.1 mm	17.1 mm	
CC(=O)N[C@@H]1[C@@H](O)[C@H](O[C@@H]2O[C@H](CO)[C@@H](O)[C@H](O[C@H](C)C(=O)N[C@@H](C)C(=O)N[C@H](CCC(=O)O)C(N)=O)[C@H]2NC(C)=O)[C@@H](CO)O[C@H]1O				Activity [2]: 900 mU
CCCCCCCCCCCCCCCCCC(=O)NC[C@H]1O[C@@H](O)[C@H](NC(C)=O)[C@@H](O[C@H](C)C(=O)N[C@@H](C)C(=O)N[C@H](CCC(=O)O)C(N)=O)[C@@H]1O		15.8 mm	20.5 mm	
CC(=O)N[C@@H]1[C@@H](O[C@H](C)C(=O)N[C@@H](CO)C(=O)N[C@H](CCC(=O)O)C(N)=O)[C@H](O)[C@@H](CO)O[C@H]1O		21.6 mm	23.1 mm	
C[C@H](NC(=O)[C@@H](C)O[C@H]1[C@H](O)[C@@H](CO)O[C@@H](O)[C@@H]1NC(=O)C(F)(F)F)C(=O)N[C@H](CCC(=O)O)C(N)=O	1.9			
CC(=O)NC[C@H]1O[C@@H](O)[C@H](NC(C)=O)[C@@H](O[C@H](C)C(=O)N[C@H](C(=O)N[C@H](CCC(=O)O)C(N)=O)C(C)C)[C@@H]1O		19.5 mm	19.1 mm	
